Results published in US9603889B2, “IAP antagonists” (BRISTOL-MYERS SQUIBB COMPANY, priority 2012, dated 2017).

Molecular target: XIAP BIR3 (N-His-Tb-BIR3(241-356, XIAP)) (Homo sapiens (Human), UniProt P98170)
Assay type: binding
Details: 130 nM N-His-Tb-BIR3(241-356, XIAP), 1.4 nM fluoresceinated modified SMAC peptide, 60 minutes room temperature; read-out: XIAP BIR3 FPA IC50

Sequence of XIAP BIR3 (N-His-Tb-BIR3(241-356, XIAP)) (P98170 241-356): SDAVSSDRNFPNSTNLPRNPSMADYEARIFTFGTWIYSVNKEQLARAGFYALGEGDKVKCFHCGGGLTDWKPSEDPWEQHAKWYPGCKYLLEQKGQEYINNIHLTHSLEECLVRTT

SMILES	IC50
CN[C@@H](C)C(=O)N[C@H](C(=O)N1C[C@@H](NC(=O)n2ccc3cc(CN(C(=O)[C@@H]4Cc5ccccc5CN4C(=O)[C@@H](NC(=O)[C@H](C)NC)C(C)(C)C)C(COC)c4ccccc4)ccc32)C[C@H]1C(=O)N[C@@H]1CCCc2ccccc21)C(C)(C)C (stereo in doubt) [Example 9, (S)-2-((S)-3,3-Dimethyl-2-((S)-2-(methylamino)propanamido)butanoyl)-N-((1-(((3S,5S)-1-((S)-3,3-dimethyl-2-((S)-2-(methylamino)propanamido)butanoyl)-5-(((R)-1,2,3,4-tetrahydronaphthalen-1-yl)carbamoyl)pyrrolidin-3-yl)carbamoyl)-1H-indol-5-yl)methyl)-N-((S)-2-methoxy-1-phenylethyl)-1,2,3,4-tetrahydroisoquinoline-3-carboxamide]	130 nM
CNC(C)C(=O)N[C@H](C(=O)N1C[C@@H](NC(=O)c2ccc(C(=O)N(C[C@@H]3Cc4ccccc4CN3C(=O)[C@@H](NC(=O)[C@H](C)NC)C(C)(C)C)[C@H](C)Cc3ccccc3F)cc2)C[C@H]1C(=O)N[C@@H]1CCCc2ccccc21)C(C)(C)C (stereo in doubt) [Example 17, N^1-(((S)-2-((S)-3,3-dimethyl-2-((S)-2-(methylamino)propanamido)butanoyl)-1,2,3,4-tetra-hydroisoquinolin-3-yl)methyl)-N^4-((3S,5S)-1-((S)-3,3-dimethyl-2-((S)-2-(methyl-amino)propanamido)butanoyl)-5-(((R)-1,2,3,4-tetrahydro-naphthalen-1-yl)carbamoyl)pyrrolidin-3-yl)-N^1-((R)-1-(2-fluorophenyl)propan-2-yl) terephthalamide]	100 nM
CN[C@@H](C)C(=O)N[C@H](C(=O)N1CC(NC(=O)c2cccc(CN(C(=O)[C@@H]3Cc4ccccc4CN3C(=O)[C@@H](NC(=O)[C@H](C)NC)C(C)(C)C)C(COC)c3ccccc3)c2)C[C@H]1C(=O)NC1CCCc2ccccc21)C(C)(C)C (stereo in doubt) [Example 39, (S)-2-((S)-3,3-Dimethyl-2-((S)-2-(methylamino)propanamido)butanoyl)-N-(3-(((3S,5S)-1-((S)-3,3-dimethyl-2-((S)-2-(methylamino)propanamido)butanoyl)-5-(((R)-1,2,3,4-tetrahydronaphthalen-1-yl)carbamoyl)pyrrolidin-3-yl)carbamoyl)benzyl)-N-((S)-2-methoxy-1-phenylethyl)-1,2,3,4-tetrahydroisoquinoline-3-carboxamide]	80 nM
CN[C@@H](C)C(=O)N[C@H](C(=O)N1C[C@@H](NC(=O)c2ccc(CN(CCc3ccccc3)C(=O)[C@@H]3Cc4ccccc4CN3C(=O)[C@@H](NC(=O)[C@H](C)NC)C(C)(C)C)cc2)C[C@H]1C(=O)N[C@@H]1CCCc2ccccc21)C(C)(C)C [Example 2, (S)-2-((S)-3,3-Dimethyl-2-((S)-2-(methylamino)propanamido)butanoyl)-N-(4-(((3S,5S)-1-((S)-3,3-dimethyl-2-((S)-2-(methylamino)propanamido)butanoyl)-5-(((R)-1,2,3,4-tetrahydronaphthalen-1-yl)carbamoyl)pyrrolidin-3-yl)carbamoyl)benzyl)-N-phenethyl-1,2,3,4-tetrahydroisoquinoline-3-carboxamide]	30 nM
CN[C@@H](C)C(=O)N[C@H](C(=O)N1C[C@@H](NC(=O)c2ccc(CN(C(=O)[C@@H]3Cc4ccccc4CN3C(=O)[C@@H](NC(=O)[C@H](C)NC)C(C)(C)C)[C@H](C)c3cccc(OC)c3)cc2)C[C@H]1C(=O)N[C@@H]1CCCc2ccccc21)C(C)(C)C [Example 3, (S)-2-((S)-3,3-Dimethyl-2-((S)-2-(methylamino)propanamido)butanoyl)-N-(4-(((3S,5S)-1-((S)-3,3-dimethyl-2-((S)-2-(methylamino)propanamido)butanoyl)-5-(((R)-1,2,3,4-tetrahydronaphthalen-1-yl)carbamoyl)pyrrolidin-3-yl)carbamoyl)benzyl)-N-((R)-1-(3-methoxyphenyl)ethyl)-1,2,3,4-tetrahydroisoquinoline-3-carboxamide]	60 nM
CN[C@@H](C)C(=O)N[C@H](C(=O)N1C[C@@H](NC(=O)c2ccc(CN(C(=O)[C@@H]3Cc4ccccc4CN3C(=O)[C@@H](NC(=O)[C@H](C)NC)C(C)(C)C)[C@H](C)c3ccc(F)cc3)cc2)C[C@H]1C(=O)N[C@@H]1CCCc2ccccc21)C(C)(C)C [Example 4, (S)-2-((S)-3,3-Dimethyl-2-((S)-2-(methylamino)propanamido)butanoyl)-N-(4-(((3S,5S)-1-((S)-3,3-dimethyl-2-((S)-2-(methylamino)propanamido)butanoyl)-5-(((R)-1,2,3,4-tetrahydronaphthalen-1-yl)carbamoyl)pyrrolidin-3-yl)carbamoyl)benzyl)-N-((R)-1-(4-fluorophenyl)ethyl)-1,2,3,4-tetrahydroisoquinoline-3-carboxamide]	100 nM
CN[C@@H](C)C(=O)N[C@H](C(=O)N1C[C@@H](NC(=O)c2ccc(CN(C(=O)[C@@H]3Cc4ccccc4CN3C(=O)[C@@H](NC(=O)[C@H](C)NC)C(C)(C)C)[C@H](C)c3ccccc3Cl)cc2)C[C@H]1C(=O)N[C@@H]1CCCc2ccccc21)C(C)(C)C [Example 5, (S)-N-((R)-1-(2-Chlorophenyl)ethyl)-2-((S)-3,3-dimethyl-2-((S)-2-(methylamino)propanamido)butanoyl)-N-(4-(((3S,5S)-1-((S)-3,3-dimethyl-2-((S)-2-(methylamino)propanamido)butanoyl)-5-(((R)-1,2,3,4-tetrahydronaphthalen-1-yl)carbamoyl)pyrrolidin-3-yl)carbamoyl)benzyl)-1,2,3,4-tetrahydroisoquinoline-3-carboxamide]	220 nM
CCC[C@H](c1ccccc1)N(Cc1ccc(C(=O)N[C@H]2C[C@@H](C(=O)N[C@@H]3CCCc4ccccc43)N(C(=O)[C@@H](NC(=O)[C@H](C)NC)C(C)(C)C)C2)cc1)C(=O)[C@@H]1Cc2ccccc2CN1C(=O)[C@@H](NC(=O)[C@H](C)NC)C(C)(C)C [Example 7, (S)-2-((S)-3,3-Dimethyl-2-((S)-2-(methylamino)propanamido)butanoyl)-N-(4-(((3S,5S)-1-((S)-3,3-dimethyl-2-((S)-2-(methylamino)propanamido)butanoyl)-5-(((R)-1,2,3,4-tetrahydronaphthalen-1-yl)carbamoyl)pyrrolidin-3-yl)carbamoyl)benzyl)-N-((R)-1-phenylbutyl)-1,2,3,4-tetrahydroisoquinoline-3-carboxamide]	190 nM
CN[C@@H](C)C(=O)N[C@H](C(=O)N1Cc2ccccc2C[C@H]1CN(CCc1ccccc1)C(=O)c1ccc(C(=O)N[C@H]2C[C@@H](C(=O)N[C@@H]3CCCc4ccccc43)N(C(=O)[C@@H](NC(=O)[C@H](C)NC)C(C)(C)C)C2)cc1)C(C)(C)C [Example 10, N^1-(((S)-2-((S)-3,3-Dimethyl-2-((S)-2-(methylamino)propanamido)butanoyl)-1,2,3,4-tetrahydroisoquinolin-3-yl)methyl)-N^4-((3S,5S)-1-((S)-3,3-dimethyl-2-((S)-2-(methylamino)propanamido)butanoyl)-5-(((R)-1,2,3,4-tetrahydronaphthalen-1-yl)carbamoyl)pyrrolidin-3-yl)-N^1-phenethylterephthalamide]	60 nM
CN[C@@H](C)C(=O)N[C@H](C(=O)N1C[C@@H](NC(=O)c2ccc(CN(Cc3cccc(Cl)c3Cl)C(=O)[C@@H]3Cc4ccccc4CN3C(=O)[C@@H](NC(=O)[C@H](C)NC)C(C)(C)C)cc2)C[C@H]1C(=O)N[C@@H]1CCCc2ccccc21)C(C)(C)C [Example 11, (S)-N-(2,3-Dichlorobenzyl)-2-((S)-3,3-dimethyl-2-((S)-2-(methylamino)propanamido)butanoyl)-N-(4-(((3S,5S)-1-((S)-3,3-dimethyl-2-((S)-2-(methylamino)propanamido)butanoyl)-5-(((R)-1,2,3,4-tetrahydro-naphthalen-1-yl)carbamoyl)pyrrolidin-3-yl)carbamoyl)benzyl)-1,2,3,4-tetra-hydroisoquinoline-3-carboxamide]	70 nM
CN[C@@H](C)C(=O)N[C@H](C(=O)N1C[C@@H](NC(=O)c2ccc(CN(CCc3ccc4ccccc4c3)C(=O)[C@@H]3Cc4ccccc4CN3C(=O)[C@@H](NC(=O)[C@H](C)NC)C(C)(C)C)cc2)C[C@H]1C(=O)N[C@@H]1CCCc2ccccc21)C(C)(C)C [Example 12, (S)-2-((S)-3,3-Dimethyl-2-((S)-2-(methylamino)propanamido)butanoyl)-N-(4-(((3S,5S)-1-((S)-3,3-dimethyl-2-((S)-2-(methyl-amino)propanamido)butanoyl)-5-(((R)-1,2,3,4-tetrahydro-naphthalen-1-yl)carbamoyl)pyrrolidin-3-yl)carbamoyl)benzyl)-N-(2-(naphthalen-2-yl)ethyl)-1,2,3,4-tetrahydro-isoquinoline-3-carboxamide]	90 nM
CN[C@@H](C)C(=O)N[C@H](C(=O)N1C[C@@H](NC(=O)c2ccc(CN(Cc3ccccc3)C(=O)[C@@H]3Cc4ccccc4CN3C(=O)[C@@H](NC(=O)[C@H](C)NC)C(C)(C)C)cc2)C[C@H]1C(=O)N[C@@H]1CCCc2ccccc21)C(C)(C)C [Example 13, (S)-N-Benzyl-2-((S)-3,3-dimethyl-2-((S)-2-(methylamino)propanamido)butanoyl)-N-(4-(((3S,5S)-1-((S)-3,3-dimethyl-2-((S)-2-(methylamino)propanamido)butanoyl)-5-(((R)-1,2,3,4-tetrahydro-naphthalen-1-yl)carbamoyl)pyrrolidin-3-yl)carbamoyl)benzyl)-1,2,3,4-tetra-hydroisoquinoline-3-carboxamide]	40 nM

Same assay, conditions: read-out: XIAP BIR3 FPA IC50

SMILES	IC50
CN[C@@H](C)C(=O)N[C@H](C(=O)N1CC(NC(=O)CN(C(=O)[C@@H]2Cc3ccccc3CN2C(=O)[C@@H](NC(=O)[C@H](C)NC)C(C)(C)C)C(COC)c2ccccc2)C[C@H]1C(=O)NC1CCCc2ccccc21)C(C)(C)C (stereo in doubt) [Example 40, (S)-2-((S)-3,3-Dimethyl-2-((S)-2-(methylamino)propanamido)butanoyl)-N-(2-(((3S,5S)-1-((S)-3,3-dimethyl-2-((S)-2-(methylamino)propanamido)butanoyl)-5-(((R)-1,2,3,4-tetrahydronaphthalen-1-yl)carbamoyl)pyrrolidin-3-yl)amino)-2-oxoethyl)-N-((S)-2-methoxy-1-phenylethyl)-1,2,3,4-tetrahydroisoquinoline-3-carboxamide]	60 nM
